Results taken from patent publication US20240228488A1 (TAKEDA PHARMACEUTICAL COMPANY LIMITED, priority 2021, published 2024).

Tests used:
[1] = target: human activated kallikrein enzyme (Homo sapiens, UniProt P03952); assay: Plasma kallikrein inhibition, fluorogenic PFR-AMC substrate, 500 pM activated kallikrein format; assay type: biochemical; conditions: 500 pM activated kallikrein, 300 uM PFR-AMC, 30 min preincubation, 10 min reaction; read-out: Primary Dose Response Assay: Average EC50
How it was run: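 Enzyme (500 pM) was preincubated with inhibitor for 30 min at room temperature in 20 mM Tris pH 7.5, 1 mM EDTA, 150 mM NaCl, 0.1% PEG-400 and 0.1% Triton X-100. The reaction was started with 300 uM PFR-AMC, run 10 min, and fluorescence read at 460 nm (380 nm excitation). EC50 derived.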

plasma kallikrein = target: T1, plasma kallikrein (Homo sapiens, UniProt P03952); assay: Neat human plasma assay, FXIIa contact pathway-activated, PFR-AMC substrate; assay type: biochemical; conditions: citrated human plasma 78% final, 10 nM human FXIIa, 100 μM PFR-AMC; read-out: Human Plasma Assay: IC90
T1 construct: from tissue
T1 sequence (P03952 391-638 limits assumed): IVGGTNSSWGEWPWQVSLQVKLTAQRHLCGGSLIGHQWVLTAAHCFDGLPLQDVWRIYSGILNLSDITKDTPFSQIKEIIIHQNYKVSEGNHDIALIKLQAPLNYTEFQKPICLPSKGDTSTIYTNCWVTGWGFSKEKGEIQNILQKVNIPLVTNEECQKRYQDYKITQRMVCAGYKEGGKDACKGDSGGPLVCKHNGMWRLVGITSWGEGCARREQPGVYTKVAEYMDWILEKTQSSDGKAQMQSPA
T1 sequence (P03952 20-390 partner limits assumed): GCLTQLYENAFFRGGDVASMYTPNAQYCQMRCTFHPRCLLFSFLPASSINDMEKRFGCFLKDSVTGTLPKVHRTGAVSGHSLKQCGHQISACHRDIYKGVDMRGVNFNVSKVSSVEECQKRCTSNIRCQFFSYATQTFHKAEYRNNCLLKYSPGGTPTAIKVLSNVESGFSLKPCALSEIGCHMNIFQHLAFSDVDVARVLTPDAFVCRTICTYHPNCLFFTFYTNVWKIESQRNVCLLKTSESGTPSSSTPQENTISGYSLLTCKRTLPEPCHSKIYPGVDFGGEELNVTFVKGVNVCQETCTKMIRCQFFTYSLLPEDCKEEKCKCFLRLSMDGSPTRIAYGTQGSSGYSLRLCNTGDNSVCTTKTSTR
Description: To analyze inhibition of plasma kallikrein in an ex vivo setting, the potency of compounds was measure in contact pathway-activated plasma assays. In a fluorogenic peptide substrate assay, test compounds dissolved in DMSO were added to sodium citrate collected human or rat plasma in a 96-well microplate. Alternatively, citrated plasma was collected from rats administered the compounds orally or by IV. 10 nM of human FXIIa (Enzyme Research Laboratories) diluted in pKal buffer (20 mM Tris-HCl, pH 7.5, 150 mM NaCl, 1 mM EDTA, 0.1% PEG-8000, and 0.1% Triton X-100) was added to the plasma, followed by the 100 μM of the profluorescent, synthetic plasma kallikrein substrate PFR-AMC (also diluted in pKal buffer). Final plasma concentration in the reaction was 78%. Fluorescence was immediately monitored by excitation/emission wavelengths of 360 nm/480 nm respectively over a period of 5 minutes in a microplate reader. The resulting linear increase in fluorescence emission (reflecting pKal proteolysis of PFR-AMC substrate) was fit to extract a proteolytic rate (fluorescent units over time), and this rate was subsequently plotted against compound inhibitor concentration. Resulting plots were fit to a standard 4-parameter IC50/IC90 equation to determine min/max values, IC50/90, and slope. All experimental steps were performed at room temperature. Table 50 provides results of the assay.

Chain of human activated kallikrein enzyme (P03952 391-638 limits assumed): as the sequence (P03952 391-638 limits assumed) above
Chain of human activated kallikrein enzyme (P03952 20-390 partner limits assumed): as the sequence (P03952 20-390 partner limits assumed) above

| EC50 [1] [nM] | IC90 (plasma kallikrein) [nM] | SMILES |
| --- | --- | --- |
| 1 to 10 | 10000 to 48000 | N#Cc1cc(C2CC2)cn2cc(CNc3cc(NC(=O)[C@H]4C[C@@H]4c4cccc(Cl)c4)ncn3)nc12 (racemic) [Example 71, rac-(1S*,2S*)-2-(3-chlorophenyl)-N-(6-(((8-cyano-6-cyclopropylimidazo[1,2-a]pyridin-2-yl)methyl)amino)pyrimidin-4-yl)cyclopropane-1-carboxamide] |
| 1 to 10 | 1500 to 10000 | O=C(Nc1cc(N2C[C@@H](O)C[C@@H]2c2cn3cc(C4CC4)cc(N4CCOC4=O)c3n2)ncn1)[C@H]1C[C@@H]1c1cccc(Cl)c1 [Example 479, (1S,2S)-2-(3-chlorophenyl)-N-(6-((2R,4S)-2-(6-cyclopropyl-8-(2-oxooxazolidin-3-yl)imidazo[1,2-a]pyridin-2-yl)-4-hydroxypyrrolidin-1-yl)pyrimidin-4-yl)cyclopropane-1-carboxamide] |
| 1 to 10 | 1500 to 10000 | O=C(Nc1cc(NCc2cn3cc(C4CC4)cc(N4CC(=O)N(CC(F)(F)F)C4=O)c3n2)ccn1)[C@H]1C[C@@H]1c1cccc(Cl)c1 [Example 512, (1S,2S)-2-(3-chlorophenyl)-N-(4-(((6-cyclopropyl-8-(2,4-dioxo-3-(2,2,2-trifluoroethyl)imidazolidin-1-yl)imidazo[1,2-a]pyridin-2-yl)methyl)amino)pyridin-2-yl)cyclopropane-1-carboxamide] |
| 1 to 10 | 400 to 1500 | Cc1ccnc([C@H]2C[C@@H]2C(=O)Nc2cc(N(C)Cc3cn4cc(C5CC5)cc(N5CC(=O)NC5=O)c4n3)nc(C3CC3)n2)n1 [Example 408, (1S,2S)-N-(2-cyclopropyl-6-(((6-cyclopropyl-8-(2,4-dioxoimidazolidin-1-yl)imidazo[1,2-a]pyridin-2-yl)methyl)(methyl)amino)pyrimidin-4-yl)-2-(4-methylpyrimidin-2-yl)cyclopropane-1-carboxamide] |
| < 1 | 10000 to 48000 | N#Cc1ccc(Cl)cc1[C@H]1C[C@@H]1C(=O)Nc1cc(NCc2cn3cc(C4CC4)ccc3n2)ccn1 (racemic) [Example 82, rac-(1S*,2S*)-2-(5-chloro-2-cyanophenyl)-N-(4-(((6-cyclopropylimidazo[1,2-a]pyridin-2-yl)methyl)amino)pyridin-2-yl)cyclopropane-1-carboxamide] |
| < 1 | < 400 | CN(C)C1CC(=O)N(c2cc(C3CC3)cn3cc(CNc4cc(NC(=O)[C@H]5C[C@@H]5c5cccc(Cl)c5)ncn4)nc23)C1 (stereo partly drawn) [Example I-18, (1S,2S)-2-(3-chlorophenyl)-N-(6-(((6-cyclopropyl-8-(4-(dimethylamino)-2-oxopyrrolidin-1-yl)imidazo[1,2-a]pyridin-2-yl)methyl)amino)pyrimidin-4-yl)cyclopropane-1-carboxamide] |
| < 1 | 400 to 1500 | Cc1ccnc([C@H]2C[C@@H]2C(=O)Nc2cc(NCc3cn4cc(C5CC5)cc(-n5c(=O)n(C)c(=O)n5C)c4n3)ncn2)n1 [Example 367, (1S,2S)-N-(6-(((6-cyclopropyl-8-(2,4-dimethyl-3,5-dioxo-1,2,4-triazolidin-1-yl)imidazo[1,2-a]pyridin-2-yl)methyl)amino)pyrimidin-4-yl)-2-(4-methylpyrimidin-2-yl)cyclopropane-1-carboxamide] |
| < 1 | < 400 | Cc1ccnc([C@H]2C[C@@H]2C(=O)Nc2cc(NCc3cn4cc(C5CC5)cc(N5CC(=O)N(C)C5=O)c4n3)ncn2)n1 (single isomer, unassigned) [Example I-260] |
| 1 to 10 | 1500 to 10000 | CN1CCN(c2cc(C3CC3)cn3cc(COc4ccnc(NC(=O)[C@H]5C[C@@H]5c5cccc(Cl)c5)c4)nc23)CC1 [Example 565, (1S,2S)-2-(3-chlorophenyl)-N-(4-((6-cyclopropyl-8-(4-methylpiperazin-1-yl)imidazo[1,2-a]pyridin-2-yl)methoxy)pyridin-2-yl)cyclopropane-1-carboxamide] |
| < 1 | 400 to 1500 | O=C(Nc1cc(NCc2cn3cc(C4CC4)cc(N4CCS(=O)(=O)CC4)c3n2)ncn1)[C@H]1C[C@@H]1c1cc(Cl)ccn1 [Example 326, (1S,2S)-2-(4-chloropyridin-2-yl)-N-(6-(((6-cyclopropyl-8-(1,1-dioxidothiomorpholino)imidazo[1,2-a]pyridin-2-yl)methyl)amino)pyrimidin-4-yl)cyclopropane-1-carboxamide] |
| 1 to 10 | 1500 to 10000 | O=C(Nc1cc(NCc2cn3cc(C4CC4)cc(C4(O)COC4)c3n2)ncn1)[C@H]1C[C@@H]1c1cccc(Cl)c1 (racemic) [Example 63, rac-(1S*,2S*)-2-(3-chlorophenyl)-N-(6-(((6-cyclopropyl-8-(3-hydroxyoxetan-3-yl)imidazo[1,2-α]pyridin-2-yl)methyl)amino)pyrimidin-4-yl)cyclopropane-1-carboxamide] |
| < 1 | 400 to 1500 | CN1CC(=O)N(c2cc(C3CC3)cn3cc(CNc4cc(NC(=O)[C@H]5C[C@@H]5c5cccc(Cl)c5)ncn4)nc23)CC1=O [Example 404, (1S,2S)-2-(3-chlorophenyl)-N-(6-(((6-cyclopropyl-8-(4-methyl-2,5-dioxopiperazin-1-yl)imidazo[1,2-a]pyridin-2-yl)methyl)amino)pyrimidin-4-yl)cyclopropane-1-carboxamide] |
| < 1 | 1500 to 10000 | O=C(Nc1cc(NCc2cn3cc(C4CC4)ccc3n2)cc(=O)[nH]1)[C@H]1C[C@@H]1c1cc(Cl)ccn1 [Example 343, (1S,2S)-2-(4-chloropyridin-2-yl)-N-(4-(((6-cyclopropylimidazo[1,2-a]pyridin-2-yl)methyl)amino)-6-oxo-1,6-dihydropyridin-2-yl)cyclopropane-1-carboxamide] |
| < 1 | 400 to 1500 | Cc1ccnc([C@H]2C[C@@H]2C(=O)Nc2cc(N3C[C@@H](O)C[C@@H]3c3cn4cc(C5CC5)cc(N5CC(=O)NC5=O)c4n3)ncn2)n1 (relative stereo) [Example 474, rac-(1S*,2S*)-N-(6-((2R,4S)-2-(6-cyclopropyl-8-(2,4-dioxoimidazolidin-1-yl)imidazo[1,2-a]pyridin-2-yl)-4-hydroxypyrrolidin-1-yl)pyrimidin-4-yl)-2-(4-methylpyrimidin-2-yl)cyclopropane-1-carboxamide] |
| < 1 | < 400 | Cc1ccnc([C@H]2C[C@@H]2C(=O)Nc2cc(NCc3cn4cc(C5CC5)cc(N5CC(=O)N(C)C5=O)c4n3)ncn2)n1 (racemic) [Example I-259, rac-(1S*,2S*)—N-(6-(((6-cyclopropyl-8-(3-methyl-2,4-dioxoimidazolidin-1-yl)imidazo[1,2-a]pyridin-2-yl)methyl)amino)pyrimidin-4-yl)-2-(4-methylpyrimidin-2-yl)cyclopropane-1-carboxamide] |
| 1 to 10 | 1500 to 10000 | CC(=O)N(C)c1cc(C2CC2)cn2cc(CNc3cc(NC(=O)[C@H]4C[C@@H]4c4cccc(Cl)c4)ncn3)nc12 [Example 274, (1S,2S)-2-(3-chlorophenyl)-N-(6-(((6-cyclopropyl-8-(N-methylacetamido)imidazo[1,2-a]pyridin-2-yl)methyl)amino)pyrimidin-4-yl)cyclopropane-1-carboxamide] |
| < 1 | < 400 | [2H]C([2H])(Nc1cc(NC(=O)[C@H]2C[C@@H]2c2nccc(C)n2)ncn1)c1cn2cc(C3CC3)cc(N3CC(=O)N(C)C3=O)c2n1 (racemic) [Example 391, rac-(1S*,2S*)-N-(6-(((6-cyclopropyl-8-(3-methyl-2,4-dioxoimidazolidin-1-yl)imidazo[1,2-a]pyridin-2-yl)methyl-d2)amino)pyrimidin-4-yl)-2-(4-methylpyrimidin-2-yl)cyclopropane-1-carboxamide] |
| < 1 | < 400 | O=C(O)CN1CCN(c2cc(C3CC3)cn3cc(CNc4ccnc(NC(=O)[C@H]5C[C@@H]5c5cccc(Cl)c5)c4)nc23)CC1 [Example 602, 2-(4-(2-(((2-((1S,2S)-2-(3-chlorophenyl)cyclopropane-1-carboxamido)pyridin-4-yl)amino)methyl)-6-cyclopropylimidazo[1,2-a]pyridin-8-yl)piperazin-1-yl)acetic acid] |
| < 1 | 400 to 1500 | O=C1CN(c2cc(C3CC3)cn3cc(CNc4cc(NC(=O)[C@H]5C[C@@H]5c5cccc(Cl)c5)ncn4)nc23)C(=O)N1 [Example 396, (1S,2S)-2-(3-chlorophenyl)-N-(6-(((6-cyclopropyl-8-(2,4-dioxoimidazolidin-1-yl)imidazo[1,2-a]pyridin-2-yl)methyl)amino)pyrimidin-4-yl)cyclopropane-1-carboxamide] |
| < 1 | 400 to 1500 | CN1CC(F)(c2cc(C3CC3)cn3cc(CNc4cc(NC(=O)[C@H]5C[C@@H]5c5cccc(Cl)c5)ncn4)nc23)C1 [Example 402, (1S,2S)-2-(3-chlorophenyl)-N-(6-(((6-cyclopropyl-8-(3-fluoro-1-methylazetidin-3-yl)imidazo[1,2-a]pyridin-2-yl)methyl)amino)pyrimidin-4-yl)cyclopropane-1-carboxamide] |
